In patent publication US8034810B2, “Arylsulfonamido-substituted hydroxamic acid derivatives” (Novartis AG, priority 1999, dated 2011):
Counter-ions that a name gives are not always drawn.

System: B16-F10 melanoma cells
Test: B16-F10 melanoma experimental metastasis model, lung tumor nodules
Assay type: in vivo, BDF1 mice
Settings: mice, tumor cells i.v.; p.o. 120 mg/kg/dosing; lungs on day 14
Description: The B16-F10 melanoma experimental metastasis model was studied following the method of Fidler. Cells were harvested by trypsinization and washed once with serum-containing medium and three times with cold PBS and then kept on ice. Mice were injected in the tail vein with a suspension of tumor cells (2×10^5 cells/0.1 ml of PBS). Animals were dosed with compounds p.o. at −1 hr, +5 hrs, 23 hrs and 29 hrs relative to the time of the cell injection at the first two days (day 0, 1). After that the animals were dosed once a day in the morning. Compounds were administered as a suspension in 1% carboxymethyl cellulose (Wako, Japan) at a dose of 120 mg/kg/dosing. Vehicle alone was administered to the control group. On day 14, the lung of the mice were removed after sacrificing the animals and the numbers of the tumor nodules were counted manually after fixing with Bouin's solution (2% picric acid in destilled water:10% formaldehyde neutral buffer solution:acetic acid=15:5:1). In this test a decrease in the number of tumor nodules of 47% compared to the vehicle alone was determined for the compound of Example 68.

For `COc1ccc(CN(CC(=O)NO)S(=O)(=O)c2ccc(OCCCCl)cc2)cc1` [Example 68, 2-{[4-(3-chloro-propoxy)-benzenesulfonyl]-(4-methoxy-benzyl)amino}-N-hydroxy-acetamide], the “decrease in the number of tumor nodules compared to the vehicle alone” value was 47%.

Target: T1, MMP1 (collagenase 1) (Homo sapiens, UniProt P03956)
T1 construct: made in house; host or cells: mouse C127 cells, vector pBPV-MMT, secreted into culture medium
T1 sequence (P03956 100-469): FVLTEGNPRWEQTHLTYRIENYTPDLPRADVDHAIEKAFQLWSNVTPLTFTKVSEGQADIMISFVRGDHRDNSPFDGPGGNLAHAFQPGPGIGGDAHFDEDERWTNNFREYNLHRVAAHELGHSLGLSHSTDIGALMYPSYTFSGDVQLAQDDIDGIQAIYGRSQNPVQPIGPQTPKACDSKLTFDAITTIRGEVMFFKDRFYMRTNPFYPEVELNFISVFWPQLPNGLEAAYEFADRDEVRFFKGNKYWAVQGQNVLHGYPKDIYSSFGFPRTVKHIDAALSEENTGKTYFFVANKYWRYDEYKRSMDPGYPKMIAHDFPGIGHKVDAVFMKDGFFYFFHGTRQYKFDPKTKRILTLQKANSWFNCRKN
Test: In vitro inhibition of MMP1 (collagenase 1), fluorogenic peptide substrate
Assay type: biochemical
Settings: APMA-activated recombinant human collagenase; substrate 10 μM; 37° C.
Description: The inhibitory activities of compounds of formula I on MT1-MMP, MMP1 (collagenase 1) and MMP2 (gelatinase A) can be determined as follows:
Stock solutions of substrate (MCA-Pro-Leu-Gly-Leu-Dpa-Ala-Arg-NH2, Knight, C. G., Willenbrock, F., Murphy, G., A novel coumarin-labelled peptide for sensitive continuous assays of the matrix metalloproteinases, FEBS lett., 296, 263-266, (1992)), are prepared in 100% DMSO at a concentration 1.0 mM. Stock solutions of inhibitors are prepared in 100% DMSO. The inhibitor is diluted into the assays from a solution in 100% DMSO, and controls substitute an equal volume of DMSO so that the final DMSO concentration from inhibitor and substrate dilutions in all assays is 6.0%. Assays are performed in assay buffer (150 mM NaCl, 10 mM CaCl2, 50 mM Tris-Cl pH7.5, 0.05% Brij-35) containing 6.0% DMSO once the substrate and inhibitor are diluted into it. The substrate concentration used in the assays is 10 μM. The test is carried out at 37° C. The fluorescence changes are monitored using an excitation wavelength of 320 nm and an emission wavelength of […]. The reaction mixture is added in duplicate to appropriate wells of a 96 well microfluor plate. The reaction mixture is preincubated with the inhibitor for 30 min, the reaction is started by the addition of MMP enzyme and the fluorescence intensity is measured for 10 min. A time point that is on a linear part of the curve is chosen to determine the activity. The inhibition results are expressed as the inhibitor concentrations that produced 50% inhibition (IC50) of the activity in the control (non-inhibited) reaction. In this test, the compounds of the formula I and their pharmacologically acceptable salts have an inhibiting concentration IC50 [μmol/litre] of 0.0001 and 0.030, usually of 0.0002 to 0.010, for MMP2 and an inhibiting concentration IC50 [μmol/litre] of 0.0005 and 0.125, usually of 0.001 to 0.05, for MT1-MMP.
Plasmid: The cDNA for human collagenase is generated by PCR of cDNA derived from RNA isolated from human U937 cells (ATCC# CRL-2367). The primers, used to generate this cDNA, are […] and AAGGCGGCCGCA […], corresponding to nucleotides 58 to 1526 of the reported cDNA sequence, GenBank accession number X05231. The resulting cDNA fragment is subcloned into Not I site of a mammalian expression vector pBPV-MMT (Matthias, P. et al., J. Mol. Biol. 1986, 187(4):557-68).
C127 cells (ATCC-mouse mammary tumor cell line) are grown in Dulbecco's Modified Essential Medium supplemented with 10% heat inactivated fetal bovine serum and 1× antibiotic-antimycotic solution at 37° C. in a humidified CO2 incubator. Cells seeded at 8×10^5 in 100 mm dishes are transfected using a calcium phosphate precipitation method. 5 h prior to transfection, medium is replaced with fresh medium. Each dish is transfected with 15 μg of the expression vector. Cells are washed twice with PBS 16-18 h after transfection and are incubated in growth medium for an additional 48 h. Clones are then selected by incubation with the Neomycin related antibiotic G418 at a concentration of 400 μg/ml. Media from selected clones are analyzed for collagenase expression by an enzymatic assay. Expression and Purification: 16 liters of culture medium are concentrated to 1.6 liters and the enzyme is isolated by the procedures described by Wilhelm et al. (Proc. Natl. Acad. Sci. (USA). 1987; 84: 6725-29). The final product is further purified on a Superose G-75 (Pharmacia/LKB, Piscataway, N.J.) gel filtration column equilibrated in the assay buffer containing 0.15 M NaCl. Enzyme is pooled and stored in aliquots at −70° C. Recombinant procollagenase (43-45 kDa) is activated with 1 mM APMA (Aminophenylmercuric acetate, ICN Pharmaceuticals) for 2 h at 37° C., and the APMA is removed by extensive dialysis against the assay buffer containing 0.15M NaCl. The activated enzyme (˜36-kDa) is stored frozen at −70° C. until use.

Point of comparison: “2-[(Cyclopropylmethoxy-benzenesulfonyl)-(4-[1,2,4]triazol-1-yl-benzyl)-amino]-N-hydroxyacetamide-hydrochloride salt [Example 82b]”, IC50 0.965 µM. Against it:
- COc1ccc(CN(CC(=O)NO)S(=O)(=O)c2ccc(OCCCCl)cc2)cc1 [Example 68, 2-{[4-(3-chloro-propoxy)-benzenesulfonyl]-(4-methoxy-benzyl)amino}-N-hydroxy-acetamide] — 1.6-fold lower, 0.622 µM
- C#CCOc1ccc(S(=O)(=O)N(CC(=O)NO)Cc2ccc(OC)cc2)cc1 [Example 75, [(4-methoxy-benzyl)-[4-prop-2-ynyloxy-benzenesulfonyl]-amino]-N-hydroxy-acetamide] — 14-fold lower, 0.069 µM
- C=CCCOc1ccc(S(=O)(=O)N(CC(=O)NO)Cc2ccc(-n3cncn3)cc2)cc1 [Example 79, 2-[(4-but-3-enyloxy-benzenesulfonyl)-(4-[1,2,4]triazol-1-yl-benzyl)-amino]-N-hydroxy-acetamide-hydrochloride salt] — 6.1-fold higher, 5.85 µM
- C=CCCOc1ccc(S(=O)(=O)N(CC(=O)NO)Cc2ccc(-n3ccnc3)cc2)cc1 [Example 80, 2-[(4-But-3-enyloxy-benzenesulfonyl)-(4-imidazol-1-yl-benzyl)-amino]-N-hydroxy-acetamide-hydrochloride] — 2.7-fold higher, 2.61 µM
- C=CCCOc1ccc(S(=O)(=O)N(CC(=O)NO)Cc2ccc(N3CCOCC3)cc2)cc1 [Example 81, 2-[(4-But-3-enyloxy-benzenesulfonyl)-(4-morpholin-4-yl-benzyl)-amino]-N-hydroxy-acetamide-hydrochloride] — 4.4-fold higher, 4.29 µM
- O=C(CN(Cc1ccc(-n2cncn2)cc1)S(=O)(=O)c1ccc(OCCC2CC2)cc1)NO [Example 82a] — 4.4-fold higher, 4.21 µM
- O=C(CN(Cc1ccc(-n2cncn2)cc1)S(=O)(=O)c1ccc(OCc2ccoc2)cc1)NO [Example 82c] — 5.3-fold higher, 5.1 µM
- C=CCCOc1ccc(S(=O)(=O)N(CC(=O)NO)Cc2cccc(F)n2)cc1 [Example 83a, 2-([4-But-3-enyloxy-benzenesulfonyl]-(6-fluoro-pyridine-2-yl)methyl-amino)-N-hydroxyacetamide] — 3.8-fold higher, 3.69 µM
- C=CCCOc1ccc(S(=O)(=O)N(CC(=O)NO)Cc2ccc(N3CCCC3)cc2)cc1 [Example 84a, 2-[(4-But-3-enyloxy-benzenesulfonyl)-(4-(pyrrolidin-1-yl)-benzyl)-amino]-N-hydroxyacetamide-hydrochloride] — 5.7-fold higher, 5.53 µM
